Data on one substance can be found in patent US20240410898A1, “METHOD FOR DETECTING PROTEIN HAVING CHANGES IN ENERGY STATE, OR AFFINITY OF LIGAND TO PROTEIN” (DALIAN INSTITUTE OF CHEMICAL PHYSICS, CHINESE ACADEMY OF …, priority 2022, published 2024).

For the assay, the system named is proteins containing the SH2 domain. Put plainly: pulldown experiment with Biotin-pYEEI, BT474 cell lysate. The class given is binding. The conditions noted are these: 100 μM Biotin-pYEEI. Here is the method: The pulldown experiment was conducted as follows: The cell lysate is from BT474 cells, and the cell lysis was performed as described in Example 1. […] Two additional 100 μL samples were treated with Biotin-pSEEI at a final concentration of 100 μM and Biotin-YEEI at a final concentration of 100 μM, respectively, serving as control groups. This process was repeated three times, and the samples were incubated with ligands at room temperature for 30 minutes. After incubation, 200 μL of avidin beads (Thermo, USA) were added to each group and incubated overnight at 4° C. Subsequently, the beads were washed four times with a washing buffer (1% phosphatase inhibitor, and 0.5% NP40 in PBS), followed by four washes with a cell lysis buffer (1% phosphatase inhibitor in PBS solution). The proteins were eluted by adding 100 μL of HEPES buffer (pH 8.2) containing 8M guanidine hydrochloride, and the elution step was repeated twice. The eluted proteins were alkylated by adding 10 mM TCEP and 40 mM CAA, followed by heating at 95° C. for 5 minutes. The eluted protein solution was transferred to an ultrafiltration unit and centrifuged at 14,000 g for 30 minutes to remove the buffer. The ultrafiltration membrane was washed twice with 200 μL of a 10 mM ammonium bicarbonate (NH4HCO3) buffer. […]

For “Phosphorylated tyrosine-glutamate-glutamate-isoleucine [pYEEI]”, the “SH2 domain proteins determined as pYEEI-binding proteins in pulldown” value is reported as “none of the proteins containing the SH2 domain was determined as pYEEI-binding proteins”.
